Data reported in ChEMBL document CHEMBL1201862, “PubChem BioAssay data set” (2004).
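The compound was tested at five concentrations on cells cultured in 96-well plates, with a 48-hour exposure period. The concentration for 50% growth inhibition is given as GI50.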 Calls of active or inactive are those of the source. Cut-off read from the data, not from the text of the source: active = GI50 up to about 1.1 µM and inactive = higher.

What was measured:
Test in all cases: NCI tumour cell line growth inhibition, 48 h
SW-620 = test system: SW-620
T47D = test system: T47D
M14 = test system: M14
786-0 = test system: 786-0
NCI-H226 = test system: NCI-H226
SK-MEL-5 = test system: SK-MEL-5
HOP-92 = test system: HOP-92
RPMI-8226 = test system: RPMI-8226
SF-268 = test system: SF-268
A549 = test system: A549
Malme-3M = test system: Malme-3M
SK-OV-3 = test system: SK-OV-3
EKVX = test system: EKVX
HCC 2998 = test system: HCC 2998
KM12 = test system: KM12
HOP-62 = test system: HOP-62
HL-60 = test system: HL-60
MCF7 = test system: MCF7
UACC-62 = test system: UACC-62
IGROV-1 = test system: IGROV-1
SNB-19 = test system: SNB-19
SR = test system: SR
OVCAR-8 = test system: OVCAR-8
HCT-116 = test system: HCT-116
NCI-H23 = test system: NCI-H23
RXF 393 = test system: RXF 393
SK-MEL-28 = test system: SK-MEL-28
Hs-578T = test system: Hs-578T
CCRF-CEM = test system: CCRF-CEM
SF-295 = test system: SF-295
ACHN = test system: ACHN
SN12C = test system: SN12C
OVCAR-4 = test system: OVCAR-4
UO-31 = test system: UO-31
U-251 = test system: U-251
MOLT-4 = test system: MOLT-4
HCT-15 = test system: HCT-15
MDA-MB-231 = test system: MDA-MB-231
DU-145 = test system: DU-145
NCI/ADR-RES = test system: NCI/ADR-RES
K562 = test system: K562
MDA-MB-435 = test system: MDA-MB-435
SF-539 = test system: SF-539
TK-10 = test system: TK-10
SNB-75 = test system: SNB-75
OVCAR-5 = test system: OVCAR-5
UACC-257 = test system: UACC-257
A498 = test system: A498
HT-29 = test system: HT-29
COLO 205 = test system: COLO 205
PC-3 = test system: PC-3
MDA-N = test system: MDA-N
LOX IMVI = test system: LOX IMVI
CAKI-1 = test system: CAKI-1

SMILES: O=CNNC(=O)Nc1ccc(Cl)cc1
- GI50 (SW-620): > 100 µM (inactive)
- GI50 (T47D): > 100 µM (inactive)
- GI50 (M14): > 100 µM (inactive)
- GI50 (786-0): > 100 µM (inactive)
- GI50 (NCI-H226): 31.1 µM (inactive)
- GI50 (SK-MEL-5): > 100 µM (inactive)
- GI50 (HOP-92): 26.9 µM (inactive)
- GI50 (RPMI-8226): > 100 µM (inactive)
- GI50 (SF-268): > 100 µM (inactive)
- GI50 (A549): > 100 µM (inactive)
- GI50 (Malme-3M): > 100 µM (inactive)
- GI50 (SK-OV-3): > 100 µM (inactive)
- GI50 (EKVX): > 100 µM (inactive)
- GI50 (HCC 2998): > 100 µM (inactive)
- GI50 (KM12): > 100 µM (inactive)
- GI50 (HOP-62): > 100 µM (inactive)
- GI50 (HL-60): > 100 µM (inactive)
- GI50 (MCF7): > 100 µM (inactive)
- GI50 (UACC-62): > 100 µM (inactive)
- GI50 (IGROV-1): > 100 µM (inactive)
- GI50 (SNB-19): 95.7 µM (inactive)
- GI50 (SR): > 100 µM (inactive)
- GI50 (OVCAR-8): > 100 µM (inactive)
- GI50 (HCT-116): > 100 µM (inactive)
- GI50 (NCI-H23): > 100 µM (inactive)
- GI50 (RXF 393): > 100 µM (inactive)
- GI50 (SK-MEL-28): > 100 µM (inactive)
- GI50 (Hs-578T): > 100 µM (inactive)
- GI50 (CCRF-CEM): > 100 µM (inactive)
- GI50 (SF-295): 33.7 µM (inactive)
- GI50 (ACHN): > 100 µM (inactive)
- GI50 (SN12C): > 100 µM (inactive)
- GI50 (OVCAR-4): > 100 µM (inactive)
- GI50 (UO-31): 68.7 µM (inactive)
- GI50 (U-251): > 100 µM (inactive)
- GI50 (MOLT-4): > 100 µM (inactive)
- GI50 (HCT-15): > 100 µM
- GI50 (MDA-MB-231): > 100 µM (inactive)
- GI50 (DU-145): > 100 µM (inactive)
- GI50 (NCI/ADR-RES): > 100 µM (inactive)
- GI50 (K562): > 100 µM (inactive)
- GI50 (MDA-MB-435): > 100 µM (inactive)
- GI50 (SF-539): > 100 µM (inactive)
- GI50 (TK-10): > 100 µM (inactive)
- GI50 (SNB-75): > 100 µM (inactive)
- GI50 (OVCAR-5): > 100 µM (inactive)
- GI50 (UACC-257): > 100 µM (inactive)
- GI50 (A498): 29.6 µM (inactive)
- GI50 (HT-29): > 100 µM (inactive)
- GI50 (COLO 205): > 100 µM (inactive)

SMILES: CSc1nc(C)c(CCOC(C)=O)c(N=P(c2ccccc2)(c2ccccc2)c2ccccc2)n1
- GI50 (SW-620): 4.97 µM (inactive)
- GI50 (T47D): 4.24 µM (inactive)
- GI50 (M14): 5.61 µM (inactive)
- GI50 (786-0): > 10 µM (inactive)
- GI50 (SK-MEL-5): 6.81 µM (inactive)
- GI50 (PC-3): 2.53 µM (inactive)
- GI50 (RPMI-8226): 3.14 µM (inactive)
- GI50 (SF-268): 4.12 µM (inactive)
- GI50 (A549): 5.12 µM (inactive)
- GI50 (Malme-3M): > 10 µM (inactive)
- GI50 (SK-OV-3): > 10 µM (inactive)
- GI50 (EKVX): > 10 µM (inactive)
- GI50 (HCC 2998): > 10 µM (inactive)
- GI50 (KM12): 3.72 µM (inactive)
- GI50 (HOP-62): 7.94 µM (inactive)
- GI50 (HL-60): 2.82 µM (inactive)
- GI50 (MCF7): 3.49 µM (inactive)
- GI50 (UACC-62): 5.75 µM (inactive)
- GI50 (IGROV-1): > 10 µM (inactive)
- GI50 (SR): 2.54 µM (inactive)
- GI50 (OVCAR-8): 4.88 µM (inactive)
- GI50 (NCI-H23): 3.77 µM (inactive)
- GI50 (RXF 393): 2.89 µM (inactive)
- GI50 (SK-MEL-28): > 10 µM (inactive)
- GI50 (CCRF-CEM): 3.89 µM (inactive)
- GI50 (MDA-N): 4.05 µM (inactive)
- GI50 (SF-295): > 10 µM (inactive)
- GI50 (SN12C): 6.78 µM (inactive)
- GI50 (LOX IMVI): 1.33 µM (inactive)
- GI50 (CAKI-1): 8.26 µM (inactive)
- GI50 (MOLT-4): 2.11 µM (inactive)
- GI50 (HCT-15): 4.89 µM
- GI50 (MDA-MB-231): 6.56 µM (inactive)
- GI50 (DU-145): > 10 µM (inactive)
- GI50 (K562): 3.42 µM (inactive)
- GI50 (TK-10): > 10 µM (inactive)
- GI50 (SNB-75): 4.28 µM (inactive)
- GI50 (UACC-257): 6.18 µM (inactive)
- GI50 (HT-29): 4.07 µM (inactive)

SMILES: N#Cc1ccc(/N=C(/NCC(=O)O)Nc2ccc3ccccc3c2)cc1
- GI50 (SW-620): > 10 µM (inactive)
- GI50 (T47D): > 10 µM (inactive)
- GI50 (M14): > 10 µM (inactive)
- GI50 (786-0): > 10 µM (inactive)
- GI50 (SK-MEL-5): > 10 µM (inactive)
- GI50 (PC-3): > 10 µM (inactive)
- GI50 (RPMI-8226): > 10 µM (inactive)
- GI50 (SF-268): > 10 µM (inactive)
- GI50 (A549): > 10 µM (inactive)
- GI50 (Malme-3M): > 10 µM (inactive)
- GI50 (SK-OV-3): > 10 µM (inactive)
- GI50 (EKVX): > 10 µM (inactive)
- GI50 (HCC 2998): > 10 µM (inactive)
- GI50 (KM12): > 10 µM (inactive)
- GI50 (HOP-62): > 10 µM (inactive)
- GI50 (HL-60): > 10 µM (inactive)
- GI50 (MCF7): > 10 µM (inactive)
- GI50 (UACC-62): > 10 µM (inactive)
- GI50 (IGROV-1): > 10 µM (inactive)
- GI50 (SR): > 10 µM (inactive)
- GI50 (OVCAR-8): > 10 µM (inactive)
- GI50 (NCI-H23): > 10 µM (inactive)
- GI50 (RXF 393): > 10 µM (inactive)
- GI50 (SK-MEL-28): > 10 µM (inactive)
- GI50 (CCRF-CEM): > 10 µM (inactive)
- GI50 (MDA-N): > 10 µM (inactive)
- GI50 (SF-295): > 10 µM (inactive)
- GI50 (SN12C): > 10 µM (inactive)
- GI50 (CAKI-1): > 10 µM (inactive)
- GI50 (MOLT-4): > 10 µM (inactive)
- GI50 (HCT-15): > 10 µM
- GI50 (MDA-MB-231): > 10 µM (inactive)
- GI50 (DU-145): > 10 µM (inactive)
- GI50 (K562): > 10 µM (inactive)
- GI50 (TK-10): > 10 µM (inactive)
- GI50 (SNB-75): > 10 µM (inactive)
- GI50 (UACC-257): > 10 µM (inactive)
- GI50 (HT-29): > 10 µM (inactive)
- GI50 (COLO 205): > 10 µM (inactive)
